PubChem BioAssay AID1549 (Sanford-Burnham Center for Chemical Genomics, 2009)
Activity calls are given as the source filed them. The rule behind the calls is not given here.

Target: Influenza A virus M2 proton channel (A/TW/4845/1999 H1N1)
Assay: NMR binding screen, influenza A virus M2 proton channel, Kd (AID 1549)
Conditions: M2 protein

| Structure (SMILES) | Kd |
| --- | --- |
| Nc1[nH]c(=S)[nH]c(=O)c1-c1ccccc1 | > 4 mM (inactive) |
| CCc1ccc(C(=O)N2CCCC2)s1 | > 4 mM (inactive) |
| NC(=O)Cn1nc2c3c(cccc3c1=O)-c1ccccc1-2 | > 4 mM (inactive) |
| Cc1c(C(=O)N2CCOCC2)oc2c1C(=O)CC(C)(C)C2 | > 4 mM (inactive) |
| NC(=O)CN1CCC(c2nc3ccccc3[nH]2)CC1 | > 4 mM (inactive) |
| Cc1nc(SCC(=O)c2c[nH]c3ccccc23)n[nH]1 | > 4 mM (inactive) |
| S=C1NC(=S)NC(c2ccc3c(c2)OCO3)N1 | > 4 mM (inactive) |
| Cc1nnc(NCCN2CCOCC2)[nH]c1=O | > 4 mM (inactive) |
| CC(=O)O[C@H]1CC[C@@]2(C)C(=CC(=O)C3C4CCC(C(C)CCCC(C)C)[C@@]4(C)CCC32)C1 (some centres not stated) | > 4 mM (inactive) |
| COc1cccc(-c2nn(-c3ccccc3)cc2CO)c1 | > 4 mM (inactive) |
| COC1=CC(=O)C(O)=C/C1=C\C=C\c1ccccc1 | > 4 mM (inactive) |
| c1n[nH]cc1-c1cn[nH]c1 | > 4 mM (inactive) |
| Cc1cc(NC(=O)CCCn2cnc([N+](=O)[O-])n2)no1 | > 4 mM (inactive) |
| C(=Nn1cnnc1)c1ccccc1 | > 4 mM (inactive) |
| Cc1ccc(C(=O)Nn2cnnc2)c(Cl)c1 | > 4 mM (inactive) |
| NC(=O)c1ccc(N2C(=O)C=CC2=O)cc1Cl | > 4 mM (inactive) |
| CNC(=O)c1ccccc1-c1ccccc1 | > 4 mM (inactive) |
| NC(=O)C1(S(=O)(=O)c2ccccc2)CC1 | > 4 mM (inactive) |
| O=P(c1ccccc1)(c1ccccc1)C1CCOCC1 | > 4 mM (inactive) |
| Nc1cc(=O)[nH]c(=S)n1CCc1ccccc1 | > 4 mM (inactive) |
| NC(=O)CSCc1ccc(Br)cc1 | > 4 mM (inactive) |
| O=C1c2ccncc2C(=O)N1CNc1ccccn1 | > 4 mM (inactive) |
| COC(=O)c1ccc2nc[nH]c2c1 | > 4 mM (inactive) |
| CC1=[N+]([O-])C2(N)CCc3c(no[n+]3[O-])C2(O)C1 (configuration not stated) | > 4 mM (inactive) |

| Structure (SMILES) | Kd |
| --- | --- |
| O=C1CSC(=Nc2cccc(C(F)(F)F)c2)N1 | > 4 mM (inactive) |
| CC(=O)Nc1ccn(-c2ccccc2)n1 | > 4 mM (inactive) |
| c1ccc(-n2nnnc2Oc2cccc3cccnc23)cc1 | > 4 mM (inactive) |
| COc1ccc(-c2ccc(OC)cc2C(=O)O)cc1 | > 4 mM (inactive) |
| CC1(C)C(=O)N(O)C(C)(C)C(=O)N1O | > 4 mM (inactive) |
| CC(=O)Nc1ccc2c(c1)CCC2=O | > 4 mM (inactive) |
| CSc1cccc(NC(=O)c2c(Cl)cnn2C)c1 | > 4 mM (inactive) |
| CN(C)CC(O)C1CCOC(C)(C)C1 (configuration not stated) | > 4 mM (inactive) |
| O=C(Cc1c(F)cccc1Cl)Nc1ccon1 | > 4 mM (inactive) |
| O=C(O)c1cc(O)c2c(c1)[C@@H]([C@H]1c3cc(C(=O)O)cc(O)c3C(=O)c3c(O[C@H]4O[C@H](CO)[C@@H](O)[C@H](O)[C@H]4O)cccc31)c1cccc(O[C@H]3O[C@H](CO)[C@@H](O)[C@H](O)[C@H]3O)c1C2=O | > 4 mM (inactive) |
| CC(=O)NCS(=O)(=O)c1ccc(C)cc1 | > 4 mM (inactive) |
| CC(C)=CCCC1(C)C=Cc2c(O)c3c(c(CC=C(C)C)c2O1)OC12C(=CC4CC1C(C)(C)OC2(C/C=C(/C)C(=O)O)C4O)C3=O (configuration not stated) | > 4 mM (inactive) |
| COc1ccc2cc1Oc1ccc(cc1)C[C@H]1c3c(cc4c(c3Oc3cc5c(cc3OC)CCN(C)[C@@H]5C2)OCO4)CCN1C | > 4 mM (inactive) |
| O=C1COc2cc(O)ccc21 | > 4 mM (inactive) |
| O=C(O)CCC(=O)Nc1nccs1 | > 4 mM (inactive) |
| CC(=O)N(c1ccccc1)C1C=CS(=O)(=O)C1 (configuration not stated) | > 4 mM (inactive) |
| Cc1cc(C)n(C/C=C/Cn2nc(C)cc2C)n1 | > 4 mM (inactive) |
| CC1=C/C(=C\c2c(O)[nH]c(=O)[nH]c2=O)C(C)=N1 | > 4 mM (inactive) |
| Cc1nnc(SCc2ccccc2)[nH]c1=O | > 4 mM (inactive) |
| Nc1ccccc1-c1nc2ccccc2[nH]1 | > 4 mM (inactive) |
| OCC1Cc2ccccc2CN1 (configuration not stated) | > 4 mM (inactive) |
| CCS(=O)(=O)N1CCN(c2ccccc2F)CC1 | > 4 mM (inactive) |
| O=C1CSC(=Nc2ccc(F)cc2)N1 | > 4 mM (inactive) |
| COc1ccc(CC(=O)c2ccc(O)cc2O)cc1 | > 4 mM (inactive) |

| Structure (SMILES) | Kd |
| --- | --- |
| CN1CCN(C(=O)c2ccco2)CC1 | > 4 mM (inactive) |
| Cc1csc2nc3ccccc3c(=O)n12 | > 4 mM (inactive) |
| CC(=O)n1nc(-c2cccnc2)nc1N | > 4 mM (inactive) |
| N#Cc1cn(CC(=O)N2CCCC2)c2ccccc12 | > 4 mM (inactive) |
| Nc1cccc2c(=O)[nH][nH]c(=O)c12 | > 4 mM (inactive) |
| COc1ccc(N=C2NC(=O)CS2)cc1 | > 4 mM (inactive) |
| CCSc1nc2ccccc2n1CC(N)=O | > 4 mM (inactive) |
| O=C1CCNc2ccccc2N1 | > 4 mM (inactive) |
| COc1cc(O)cc(/C=C/c2ccccc2)c1 | > 4 mM (inactive) |
| CC(=O)Nc1ccc(NC(C)=O)cc1 | > 4 mM (inactive) |
| COc1ccc(C(=O)CC(=O)O)c2c1C=CC(C)(C)O2 | > 4 mM (inactive) |
| O=C1Nc2ccccc2C12OCCO2 | > 4 mM (inactive) |
| O=C(CO)N/N=C/c1ccccc1F | > 4 mM (inactive) |
| Cc1cc(C)n(-c2ccc(N)cc2)n1 | > 4 mM (inactive) |
| C[C@@H]1CCC2[C@](C)(CO)[C@@H](O)CC[C@]2(C)[C@@]12CC[C@@](CO)(CCO)O2 (some centres not stated) | > 4 mM (inactive) |
| O=S1(=O)CCC(Nc2ccccc2)C1 (configuration not stated) | > 4 mM (inactive) |
| COc1ccc2cnn(-c3ccccc3)c(=O)c2c1OC | > 4 mM (inactive) |
| CCOc1ccc2ccccc2c1C(=O)N1CCOCC1 | > 4 mM (inactive) |
| O=C1CN(c2ccccc2)CC(=O)N1 | > 4 mM (inactive) |
| O=C1C2CCCCC2C(=O)N1c1nccs1 (configuration not stated) | > 4 mM (inactive) |
| COC(=O)c1c(C)c2c(c(C)c1O)OC(=O)c1c(C)c(Cl)c(O)c(Cl)c1O2 | > 4 mM (inactive) |
| Cc1cc2cc(N)ccc2[nH]1 | > 4 mM (inactive) |
| Cc1ccc(-n2nnnc2SCC(N)=O)c(C)c1 | > 4 mM (inactive) |
| COc1ccc(S(=O)(=O)NCCO)cc1 | > 4 mM (inactive) |

| Structure (SMILES) | Kd |
| --- | --- |
| C=C1C[C@]23C[C@@]1(O)CC[C@H]2[C@@]12C=C[C@H](O)C(C)(C(=O)O1)[C@H]2[C@@H]3C(=O)O | > 4 mM (inactive) |
| Cc1nn(C)c(C)c1NC(=S)NC1CCCC1 | > 4 mM (inactive) |
| O=C(NC(=S)NCCO)c1ccccc1 | > 4 mM (inactive) |
| Cc1ccc(C)n1NC(=O)c1cccs1 | > 4 mM (inactive) |
| CCOc1cc(S(=O)(=O)n2nc(C)cc2C)ccc1F | > 4 mM (inactive) |
| COc1ccc2c(c1)OCC(Cc1ccc(OC)c(OC)c1)C2=O (configuration not stated) | > 4 mM (inactive) |
| NC(=O)Cn1cnc2ccccc21 | > 4 mM (inactive) |
| S=c1nc(Cc2ccccc2)[nH][nH]1 | > 4 mM (inactive) |
| O=C(O)c1scc2c1CCCC2 | > 4 mM (inactive) |
| CC(C)n1nnc2cc(C(=O)O)ccc21 | > 4 mM (inactive) |
| CCOC(=O)c1snnc1-c1ccccc1 | > 4 mM (inactive) |
| Cc1ccccc1NC(=O)C1CC(=O)N=C(N)S1 (configuration not stated) | > 4 mM (inactive) |
| Nc1cncc(C(=O)O)c1 | > 4 mM (inactive) |
| COc1cccc(-c2csc(NC(C)=O)n2)c1 | > 4 mM (inactive) |
| CC(C)=CCC[C@](C)(O)C1CC=C(C)CC1 (some centres not stated) | > 4 mM (inactive) |
| CCOc1ccc(-c2c(=O)n(O)c3ccccc3[n+]2[O-])cc1 | > 4 mM (inactive) |
| CCCSc1nnc2[nH]c(=O)cc(N)n12 | > 4 mM (inactive) |
| CCCCCC/C=C\CCCCCCCc1cccc(O)c1C(=O)O | > 4 mM (inactive) |
| CC(C)C(C)/C=C/C(C)C1CCC2C3=CC=C4CC(O)CCC4(C)C3CCC21C (configuration not stated) | > 4 mM (inactive) |
| CC(C)(C)C(=O)Nc1ncc(C(F)(F)F)cc1Cl | > 4 mM (inactive) |
| Cc1ccc(/C=N/n2c(C)nnc2C)cc1 | > 4 mM (inactive) |
| O=[n+]1c(CO)c(CO)n([O-])c2ccccc21 | > 4 mM (inactive) |
| CNC(C)[C@H](O)c1ccccc1 (some centres not stated) | > 4 mM (inactive) |
| O=C1C2C3C=CC(C3)C2C(=O)N1c1nccs1 (configuration not stated) | > 4 mM (inactive) |

| Structure (SMILES) | Kd |
| --- | --- |
| Cn1c(O)c(/C=C2\C=CC=N2)c(=O)[nH]c1=O | > 4 mM (inactive) |
| C=C(C)[C@@H]1[C@H]2OC(=O)[C@@H]1[C@]1(O)C[C@H]3O[C@]34C(=O)O[C@H]2[C@]14C | > 4 mM (inactive) |
| CCC(C)OC1CCS(=O)(=O)C1 (configuration not stated) | > 4 mM (inactive) |
| CC(=O)O[C@@H]1CC2C(C)(C)[C@@H](O)CC[C@]2(C)C2CC[C@@]3(C)[C@H](c4ccoc4)OC(=O)[C@H]4O[C@]43[C@@]21C (some centres not stated) | > 4 mM (inactive) |
| NC(=O)c1sc2ccccc2c1Cl | > 4 mM (inactive) |
| Cc1ccc(S(=O)(=O)CCc2ccccn2)cc1 | > 4 mM (inactive) |
| O=C(Nc1ccccc1)N1CCOCC1 | > 4 mM (inactive) |
| COC(=O)Nc1nc2c(C)cccc2s1 | > 4 mM (inactive) |
| CC(C)=CCc1c(O)cc(C)oc1=O | > 4 mM (inactive) |
| O=CN1CCN(C(=O)c2ccccc2F)CC1 | > 4 mM (inactive) |
| COc1ccc(/C=C2/N=C(N)SC2=O)cc1 | > 4 mM (inactive) |
| COC1=C(OC)C(=O)C(C/C=C(\C)CC/C=C(\C)CC/C=C(\C)CC/C=C(/C)CC/C=C(\C)CC/C=C(\C)CC/C=C(\C)CC/C=C(\C)CC/C=C(\C)CCC=C(C)C)=C(C)C1=O | > 4 mM (inactive) |
| CSc1nnc2ccc(-c3cccnc3)nn12 | > 4 mM (inactive) |
| COc1cccc(S(=O)(=O)Nc2cccnc2)c1 | > 4 mM (inactive) |
| CN1CCC(N(C)C2CCN(C)CC2)CC1 | > 4 mM (inactive) |
| COc1ccc(/C=C2\SC(N)=NC2=O)cc1 | > 4 mM (inactive) |
| Nc1ccc(CN2CCOCC2)cc1 | > 4 mM (inactive) |
| O=C(O)CSc1cccc2cccnc12 | > 4 mM (inactive) |
| S=C(Nc1ccc2nccnc2c1)N1CCOCC1 | > 4 mM (inactive) |
| CS(=O)(=O)CCCCN=C=S | > 4 mM (inactive) |
| O=C1CSC(=Nc2ccc(Cl)cc2)N1 | > 4 mM (inactive) |
